Test: Stability of cryodesiccated composition
Assay type: physicochemical
Conditions: room temperature
From the text: Once formulated, the micelles of the invention may be freeze-dried or lyophilized for long-term storage if desired. […] If the composition is freeze-dried, it may be packed in vials for subsequent reconstitution with a suitable aqueous solution, such as sterile water or sterile water containing a saccharide and/or other suitable excipients, just prior to use. For example, reconstitution may be by simply adding water for injection just prior to administration.

## benzoporphyrin derivative monoacid ring A [verteporfin]
  period over which potency was maintained: at least nine months
